In US7432093B2, “Soluble, functional apoptotic protease-activating factor 1 fragments” (The Trustees of Princeton University, priority 2004, dated 2008):

Target: T1, caspase-9 activation by the soluble Apaf-1 fragment (Homo sapiens, UniProt O14727)
T1 construct: Leu-Glu-His6 (C); made in house; host or cells: Escherichia coli BL21(DE3), pET29 (both proteins)
T1 sequence (O14727 1-591): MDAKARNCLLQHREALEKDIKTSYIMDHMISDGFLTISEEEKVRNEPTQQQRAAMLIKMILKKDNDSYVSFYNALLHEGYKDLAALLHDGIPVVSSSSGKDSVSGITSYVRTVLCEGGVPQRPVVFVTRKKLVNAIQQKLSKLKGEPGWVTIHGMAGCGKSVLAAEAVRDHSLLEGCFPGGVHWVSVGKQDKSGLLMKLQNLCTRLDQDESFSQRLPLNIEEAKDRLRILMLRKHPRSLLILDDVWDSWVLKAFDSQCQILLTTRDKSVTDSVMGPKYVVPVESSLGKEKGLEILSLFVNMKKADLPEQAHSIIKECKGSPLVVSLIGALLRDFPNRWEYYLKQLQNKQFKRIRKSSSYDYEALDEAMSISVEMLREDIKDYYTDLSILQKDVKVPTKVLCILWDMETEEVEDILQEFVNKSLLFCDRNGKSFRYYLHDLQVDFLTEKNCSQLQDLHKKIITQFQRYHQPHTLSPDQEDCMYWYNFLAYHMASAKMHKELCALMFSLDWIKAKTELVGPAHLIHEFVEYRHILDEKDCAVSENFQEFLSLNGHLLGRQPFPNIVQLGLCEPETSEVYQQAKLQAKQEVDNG
T1 sequence (P55211 1-315 partner limits assumed): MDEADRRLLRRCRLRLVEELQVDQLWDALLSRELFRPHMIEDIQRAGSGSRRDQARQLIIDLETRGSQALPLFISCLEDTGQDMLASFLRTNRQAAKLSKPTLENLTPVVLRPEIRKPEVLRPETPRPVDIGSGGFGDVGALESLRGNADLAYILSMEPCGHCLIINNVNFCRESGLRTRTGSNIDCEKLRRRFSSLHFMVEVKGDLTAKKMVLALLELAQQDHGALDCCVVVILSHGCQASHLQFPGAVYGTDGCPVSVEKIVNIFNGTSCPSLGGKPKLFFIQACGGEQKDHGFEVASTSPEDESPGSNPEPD
T1 sequence (P55211 331-416 partner limits assumed): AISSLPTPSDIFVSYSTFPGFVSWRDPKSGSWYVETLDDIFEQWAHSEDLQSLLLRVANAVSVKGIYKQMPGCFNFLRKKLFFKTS
Assay: Caspase-9 activation assay (fluorogenic, LEHD-AMC)
Assay type: biochemical
Details: for Apaf-1-mediated caspase-9 activation by nucleotide with EDTA (hydrolysis blocked): 1 millimolar EDTA; for Apaf-1-mediated caspase-9 activation by nucleotide with EDTA (hydrolysis blocked) / Apaf-1-mediated caspase-9 activation by nucleotide: FIG. 6B/6C; for Apaf-1-mediated caspase-9 activation by nucleotide: Apaf-1 2 micromolar, caspase-9 0.2 micromolar, no EDTA
Procedure: A fluorogenic assay was developed to monitor caspase-9 activation by the soluble Apaf-1 fragment. […] Then, caspase-9 and Apaf-1 were added to a final volume of 200 microliter and final concentrations of 0.2 micromolar and 2 micromolar, respectively. After incubation for 5 minutes at room temperature, the caspase-9 substrate LEHD-AMC (a tetrapeptide coupled to 7-amino […]) was added to the reaction at a final concentration of 200 micromolar. The conversion of the fluorogenic substrate was then measured using a Hitachi F2500 fluorescence spectrophotometer with an excitation wavelength of 380 nanometers and a fluorescence detection wavelength of 440 nanometers.

Row | Structure (SMILES) | optimal concentration for caspase-9 activation | Apaf-1-mediated caspase-9 activation by nucleotide with EDTA (hydrolysis blocked) | Apaf-1-mediated activation of caspase-9 at higher concentrations (above the optimal range of 1-5 micromolar) | caspase-9 activation compared with ATP (nucleotide at 2 micromolar) | Apaf-1-mediated caspase-9 activation by nucleotide
1 | Nc1ncnc2c1ncn2[C@H]1C[C@H](O)[C@@H](COP(=O)(O)OP(=O)(O)OP(=O)(O)O)O1 [dATP] | 1 to 5 µM | completely abolished caspase-9 activation | reduced slightly | greater activation of caspase-9 than did ATP | –
2 | Nc1nc(Cl)nc2c1ncn2[C@H]1C[C@H](O)[C@@H](COP(=O)(O)OP(=O)(O)OP(=O)(O)O)O1 [Fragment 2CdATP] | approximately 100 micromolar | loss of this response | – | – | potent activator for caspase-9 activation
3 | Nc1ncnc2c1ncn2[C@@H]1O[C@H](COP(=O)(O)OP(=O)(O)OP(O)(O)=S)[C@@H](O)[C@H]1O [ATP-gamma-S] | – | – | – | – | unable to support caspase-9 activation
4 | Nc1ncnc2c1ncn2[C@@H]1O[C@H](COP(=O)(O)OP(=O)(O)OP(=O)(O)O)[C@@H](O)[C@H]1O [ATP] | – | completely abolished the positive effect of ATP | – | – | further drastically improved caspase-9 activity
5 | CSc1nc(N)c2ncn([C@@H]3O[C@H](COP(=O)(O)OP(=O)(O)OP(=O)(O)O)[C@@H](O)[C@H]3O)c2n1 [APM, 2-methylthio-ATP] | – | abrogated this effect | – | – | supported Apaf-1-mediated caspase-9 activation
